Assays:
[1] = system: 33770 mRNA; assay: 33770 mRNA in livers of mice, ciprofibrate (TaqMan); format: in vivo; details: p=0.02
Text: (§1) This example describes the TaqMan™ procedure. The Taqman™ procedure is a quantitative, reverse transcription PCR-based approach for detecting mRNA. The RT-PCR reaction exploits the 5′ nuclease activity of AmpliTaq Gold™ DNA Polymerase to cleave a TaqMan™ probe during PCR. Briefly, cDNA was generated from the samples of interest, e.g., heart, kidney, liver, skeletal muscle, and various vessels, and used as the starting material for PCR amplification. In addition to the 5′ and 3′ gene-specific primers, a gene-specific oligonucleotide probe (complementary to the region being amplified) was included in the reaction (i.e., the Taqman™ probe). […]
(§2) During the PCR reaction, cleavage of the probe separates the reporter dye and the quencher dye, resulting in increased fluorescence of the reporter. Accumulation of PCR products is detected directly by monitoring the increase in fluorescence of the reporter dye. When the probe is intact, the proximity of the reporter dye to the quencher dye results in suppression of the reporter fluorescence. […]

[2] = system: 54946 mRNA; assay: 54946 mRNA in livers of mice, ciprofibrate (microarray or RT-PCR); format: in vivo; details: p=0.008
[3] = system: 2552 mRNA; assay: 2552 mRNA in livers of mice (TaqMan); format: in vivo
Text: as §1, §2

[4] = system: 7301 mRNA; assay: 7301 mRNA in livers of mice treated with ciprofibrate (TaqMan); format: in vivo; details: livers of mice during treatment
Text: as §1, §2

[5] = system: 9123 mRNA; assay: 9123 mRNA in livers of mice treated with ciprofibrate (TaqMan); format: in vivo; details: livers of mice during treatment
Text: as §1, §2

[6] = system: 43969; assay: 43969 expression in livers of mice administered ciprofibrate (TaqMan); format: in vivo
Text: as §1, §2

[7] = system: 42028; assay: 42028 expression in livers of mice treated with ciprofibrate (microarray); format: in vivo
[8] = system: 9380 mRNA; assay: 9380 mRNA in livers of mice treated with ciprofibrate (TaqMan); format: in vivo
Text: as §1, §2

[9] = system: 112091; assay: 112091 expression in livers of wild-type mice treated with ciprofibrate; format: in vivo
[10] = system: 554 mRNA; assay: 554 mRNA in livers of mice treated with ciprofibrate (microarray); format: in vivo; details: livers of treated mice vs control liver samples, p=0.006
[11] = system: 19319 mRNA; assay: 19319 mRNA in livers of mice administered ciprofibrate (TaqMan); format: in vivo
Text: as §1, §2

[12] = system: 8921 mRNA; assay: 8921 mRNA in liver samples of mice treated with ciprofibrate (microarray); format: in vivo; details: liver samples of treated mice vs control liver samples, p=0.002
[13] = system: 2569654 mRNA; assay: 2569654 mRNA in livers of mice treated with Ciprofibrate (TaqMan); format: in vivo
Text: as §1, §2

[14] = system: 16408 mRNA; assay: 16408 mRNA in livers of mice treated with ciprofibrate (microarray); format: in vivo
[15] = system: 8701 mRNA; assay: 8701 mRNA in livers of marmosets treated with lipid-lowering therapies (TaqMan); format: in vivo
[16] = system: 9325 mRNA; assay: 9325 mRNA in livers of marmosets (TaqMan); format: in vivo
Text: as §1, §2

[17] = system: 21668 mRNA; assay: 21668 mRNA in marmoset models treated with cholesterol lowering agents (TaqMan); format: in vivo
[18] = system: 10102 mRNA; assay: 10102 mRNA regulation by lipid lowering drugs (TaqMan)
[19] = system: 3533 mRNA; assay: 3533 mRNA regulation by lipid lowering drugs (TaqMan)
Text: (§3) This example describes the TaqMan™ procedure. The Taqman™ procedure is a quantitative, reverse transcription PCR-based approach for detecting mRNA. The RT-PCR reaction exploits the 5′ nuclease activity of AmpliTaq Gold™ DNA Polymerase to cleave a TaqMan™ probe during PCR. Briefly, cDNA was generated from the samples of interest, e.g., heart, kidney, liver, skeletal muscle, and various vessels, and used as the starting material for PCR amplification. In addition to the 5′ and 3′ gene-specific primers, a gene-specific oligonucleotide probe (complementary to the region being amplified) was included in the reaction (i.e., the Taqman™ probe). The TaqMan™ probe includes the oligonucleotide with a fluorescent reporter dye covalently linked to the 5′ end of the probe (such as FAM (6-carboxyfluorescein), TET (6-carboxy4,7,2′,7′-tetrachlorofluorescein), JOE (6-carboxy-4,5-dichloro-2,7-dimethoxyfluorescein), or VIC) and a quencher dye (TAMRA (6-carboxy-N,N,N′,N′-tetramethylrhodamine) at the 3′ end of the probe.
(§4) During the PCR reaction, cleavage of the probe separates the reporter dye and the quencher dye, resulting in increased fluorescence of the reporter. Accumulation of PCR products is detected directly by monitoring the increase in fluorescence of the reporter dye. When the probe is intact, the proximity of the reporter dye to the quencher dye results in suppression of the reporter fluorescence. During PCR, if the target of interest is present, the probe specifically anneals between the forward and reverse primer sites. The 5′-3′ nucleolytic activity of the AmpliTaq™ Gold DNA Polymerase cleaves the probe between the reporter and the quencher only if the probe hybridizes to the target. The probe fragments are then displaced from the target, and polymerization of the strand continues. The 3′ end of the probe is blocked to prevent extension of the probe during PCR. […] RNA was prepared using the trizol method and treated with DNase to remove contaminating genomic DNA. cDNA was synthesized using standard techniques.

[20] = system: 10653 mRNA; assay: 10653 mRNA in livers of marmosets treated with lipid-lowering therapies (TaqMan); format: in vivo
[21] = system: 8925 mRNA; assay: 8925 mRNA in livers of marmosets treated with lipid-lowering therapies (TaqMan); format: in vivo
[22] = system: 2552 mRNA; assay: 2552 mRNA in marmoset livers (TaqMan); format: in vivo
[23] = system: 8921 mRNA; assay: 8921 mRNA expression in marmosets; format: in vivo
[24] = system: 53656 mRNA; assay: 53656 mRNA in livers of Marmosets (TaqMan); format: in vivo
[25] = system: 2569654 mRNA; assay: 2569654 mRNA in marmoset models (TaqMan); format: in vivo
Text: as §3, §4

[26] = system: 9380 mRNA; assay: 9380 mRNA in livers of marmosets (TaqMan); format: in vivo
[27] = system: 9462 mRNA; assay: 9462 mRNA regulation by lipid lowering drugs (TaqMan)
Text: as §1, §2

[28] = system: 19319 mRNA; assay: 19319 mRNA in livers of marmosets (TaqMan); format: in vivo
[29] = system: 17729 mRNA; assay: 17729 mRNA in marmoset models (TaqMan); format: in vivo

Compound: CC(C)(Oc1ccc(C2CC2(Cl)Cl)cc1)C(=O)O (centres unmarked) [ciprofibrate]
- 33770 mRNA downregulated [1]: 0.76 fold
- 54946 mRNA upregulated [2]: 2.0 fold
- 2552 mRNA expression [3]: downregulate
- 7301 mRNA expression [4]: down-regulated
- 9123 mRNA expression [5]: upregulated
- 43969 expression [6]: downregulated
- 42028 expression [7]: down-regulated
- 9380 mRNA expression [8]: downregulated
- 112091 expression [9]: down-regulated
- 554 mRNA downregulated [10]: 0.68 fold
- 19319 mRNA expression [11]: upregulated
- 8921 mRNA downregulated [12]: 0.59 fold
- 2569654 mRNA expression [13]: significantly downregulated
- 16408 mRNA expression [14]: down-regulated

Compound: cholestyramine
- 8701 mRNA expression [15]: upregulated
- 9325 mRNA upregulated [16]: 1.4 fold
- 21668 mRNA expression [17]: marked increase
- 10102 mRNA expression [18]: significantly upregulated
- 3533 mRNA expression [19]: significantly downregulated
- 10653 mRNA expression [20]: downregualted
- 8925 mRNA expression [21]: upregulated
- 2552 mRNA expression [22]: upregulated
- increase in 8921 mRNA expression [23]: 1.5 fold
- 53656 mRNA upregulated [24]: 1.8 fold
- 2569654 mRNA expression [25]: upregulated
- 9380 mRNA expression [26]: upregulated
- 9462 mRNA expression [27]: upregulated
- 19319 mRNA expression [28]: upregulated
- 17729 mRNA expression [29]: upregulated

— patent publication US20050037946A1, “Methods and compositions for treating cardiovascular disease using 1722, 10280, 59917, 85553, 10653, 9235, 21668, 17794, 2210, 6169, 10102, 21061, 17662, 1468, 12282, 6350, 9035, 1820, 23652, 7301, 8925, 8701, 3533, 9462, 9123, 12788, 17729, 65552, 1261, 21476, 33770, 9380, 2569654, 33556, 53656, …” (Millennium Pharmaceuticals, Inc., priority 2003, published 2005)
